Measurements reported in patent publication US8329745B2, “Small molecule inhibitors of ghrelin O-acyltransferase” (Board of Regents, The University of Texas System, priority 2008, dated 2012).
Where a SMILES comes first, the peptide text is derived from it. [ ]: non-standard residue; d: D form. The star is where a group is joined. Octanoyl = CCCCCCCC(=O)*; Dap = NC[C@H](N)C(=O)O

Tests used:
mouse GOAT = biological target: T1, mouse GOAT (Mus musculus, UniProt P0C7A3); assay: In vitro octanoylation assay: [3H]octanoyl transfer from octanoyl CoA to proghrelin-His8 by membranes of Sf9 cells expressing GOAT; assay type: biochemical; conditions: for inhibition of GOAT activity (qualitative): all concentrations tested / concentration not stated; for GOAT inhibitory activity compared with PH1147 / GOAT inhibitory activity/potency compared with BK1114: concentration not given; for GOAT inhibition in vitro compared with PH1147: 100 μM concentration; for dose response inhibition of GOAT activity in vitro / inhibition of GOAT activity at high concentration / IC50: Sf9 membranes; for dose response inhibition of GOAT activity in vitro: mouse His10-GOAT, 3% DMSO; for inhibition of GOAT activity at high concentration: 500 μM; for inhibition of GOAT activity at high concentration / IC50: mouse GOAT; for IC50: read-out: IC50 for GOAT inhibition in vitro
T1 construct: made in house; host or cells: Sf9 insect cells (baculovirus); crude membrane fraction used
T1 sequence (P0C7A3 1-435): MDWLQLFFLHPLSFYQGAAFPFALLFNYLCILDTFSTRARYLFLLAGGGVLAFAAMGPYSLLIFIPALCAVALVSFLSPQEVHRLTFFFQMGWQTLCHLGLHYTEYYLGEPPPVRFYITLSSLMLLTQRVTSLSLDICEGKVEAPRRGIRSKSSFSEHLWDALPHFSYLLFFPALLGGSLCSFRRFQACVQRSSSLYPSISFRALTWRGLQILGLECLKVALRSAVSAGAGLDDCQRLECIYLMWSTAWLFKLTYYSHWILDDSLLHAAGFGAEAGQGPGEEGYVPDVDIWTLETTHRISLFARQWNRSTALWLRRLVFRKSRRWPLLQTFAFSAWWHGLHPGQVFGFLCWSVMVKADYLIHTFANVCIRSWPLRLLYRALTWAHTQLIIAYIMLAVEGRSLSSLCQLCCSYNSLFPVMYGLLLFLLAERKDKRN
Method: The assay we used is described in copending U.S. Ser No. 12/167,917, filed: Jul. 3, 2008. For baculoviral infection of insect cells, mouse GOAT cDNA was inserted into pFastBac HT-A (His10-tag) (Invitrogen), and baculovirus was generated. Sf9 insect cells were cultured, set up on day 0 at a density of 5×10^5 cells/ml, and infected on day 1 with baculovirus encoding His 10-GOAT at a density of 1×10^6 cells/ml. Cells were harvested 48 h post-infection and washed once with phosphate-buffered saline.
Each pellet of Sf9 cells (obtained from 1 liter of cell culture) was disrupted with a Dounce homogenizer (40 strokes) on ice in 50 ml of buffer containing 50 mM Tris-Cl (pH 7.0), 150 mM NaCl, 1 mM sodium EDTA, 1 mM dithiothreitol, 100 μM bis(4-nitrophenyl) phosphate, 2.5 μg/ml aprotinin, 20 μg/ml phenylmethylsulfonyl fluoride, 10 μg/ml leupeptin, and 10 μg/ml pepstatin A. After an initial centrifugation at 3,000 g for 5 min at 4° C., the supernatant was further centrifuged at 100,000 g for 30 min at 4° C. to obtain a membrane fraction, which was stored at −80° C. until the time of assay. Just prior to assay, the membranes were suspended in 50 mM HEPES-NaOH (pH 7.0) and then passed through a 22-gauge needle 10 times. After centrifugation at 1,000 g for 1 min to remove aggregated materials, the supernatant (hereafter referred as membranes) was used for assays.
Unless otherwise stated, the standard assay mixture contained 50 mM HEPES-NaOH (pH 7.0), 50 μM palmitoyl CoA or myristyl ether CoA, 50 μg membrane protein, 5 μg recombinant wild type or mutant versions of proghrelin-His8 and 1 μM [^3H]octanoyl CoA (11 dpm/fmol) in a final volume of 50 μl. […] The columns were washed at room temperature with 1 ml of buffer A followed by 3 ml of buffer A containing 25 mM imidazole. The His-tagged proghrelin was then eluted with 1 ml of buffer A containing 250 mM imidazole. Radioactivity present in the 250 mM-imidazole eluate was quantified by liquid scintillation counting.
Compounds PH1147-1152 were screened for GOAT inhibition in vitro using membrane fractions prepared from Sf9 insect cells infected with baculovirus encoding mouse GOAT. The assay (described in U.S. Ser. No. 12/167,917) measures the extent of specific acyl transfer from tritiated octanoyl CoA to recombinant His-tagged proghrelin. […] PH1147 was the simplest molecule in the set and lacked motifs present in the more complex analogs intended to be Ser2 and/or Phe4 mimetics.
(§1) Inhibition of GOAT activity by [Dap^3]octanoyl-ghrelin (1-5)-NH2 peptide and BK1114. Membranes from Sf9 cells infected with baculovirus encoding mouse His10-GOAT were prepared as previously described (Yang J, Zhao T J, Goldstein J L, Brown M S. 2008 PNAS, 105: 10750-10755). Each 50-μl reaction mixture contained 50 μg of membrane protein, 5 μg of proghrelin-His8, 50 μM palmitoyl CoA, 1 μM http[^3H]octanoyl CoA (11 dpm/fmol), and the experimental concentrations of peptide or compound in a final concentration of 3% (vol/vol) DMSO. Control values were established which represent the amount of [3H]octanoyl proghrelin formed in the absence of compound.
as §1, with “the synthetic compounds, BK1114, BK1176, BK1177” for “[Dap^3]octanoyl-ghrelin (1-5)-NH2 peptide”, “BK1183.” for “BK1114.”, “et al., 2008, supra).” for “J, Zhao T J, Goldstein J L, Brown M S. 2008 PNAS, 105: 10750-10755).”, “[^3H]octanoyl” for “http[^3H]octanoyl”, “the” for “peptide or”

GOAT = biological target: T2, GOAT (Mus musculus, UniProt P0C7A3); assay: Inhibition of GOAT activity in intact INS-1 cells co-expressing preproghrelin and GOAT (anti-ghrelin immunoblot); assay type: cell-based, Rat; conditions: 5 to 10 to 20 to 50 uM inhibitor, 24 h
T2 construct: expressed in transfected cells; host or cells: rat INS-1 cells stably co-expressing preproghrelin (pCMV-preproghrelin) and GOAT-T7 (pEF-GOAT-T7)
T2 sequence (P0C7A3 1-435): T1 sequence (P0C7A3 1-435)
Method: A stably transfected INS-1 cell line co-expressing preproghrelin and GOAT was established as described below. On day 0, cells were set up at a density of 1.5×10^6/100-mm dish in medium A (RPMI-1640 medium supplemented with 10 mM HEPES, 50 μM β-mercaptoethanol, 100 U/ml penicillin, and 100 μg/ml streptomycin) containing 10% (v/v) FCS. On day 2, fresh medium was added. On day 4, the cells received a direct addition of the indicated concentration of BK1114 delivered in DMSO. The final concentration of DMSO in each dish was 0.5%. 24 h after treatment, two dishes of cells from each condition were harvested and pooled, after which peptides were extracted from the cells, fractioned on reverse-phase chromatography, and subjected to immunoblot analysis with a 1:1000 dilution of rabbit anti-ghrelin antibody as previously described (Yang J, Brown M S, Liang G, Grishin N V, Goldstein J L (2008) Identification of the acyltransferase that octanoylates ghrelin, an appetite-stimulating peptide hormone. Cell 132:387-39). Films were exposed for 1 min.
Stably transfected cell line co-expressing preproghrelin and GOAT. Rat INS-1 cells were grown in monolayer at 37° C. in 8.8% CO2 as previously described (Id.). […] Expression of proghrelin and ghrelin was assessed by immunoblot analysis. […] Expression of GOAT-T7 was assessed by immunoblot analysis.

CCC(C)(O)/C=C/[C@H](NC(=O)OCc1ccccc1)C(=O)OC (stereo partly shown) [BK1095]
inhibition of GOAT activity (qualitative) (mouse GOAT): little inhibition

CCCCCCCC(O)/C=C/[C@H](NC(=O)C(F)(F)F)C(=O)OC (stereo partly shown) [BK1112]
GOAT inhibitory activity compared with PH1147 (mouse GOAT): not helpful

CCCCCCCC(C)(O)/C=C/C(NC(=O)OCc1ccccc1)C(=O)OC (stereo not shown) [BK1114]
GOAT inhibition in vitro compared with PH1147 (mouse GOAT): roughly twice as efficacious as PH1147 | dose response inhibition of GOAT activity in vitro (mouse GOAT): dose response inhibition | dose response inhibition of GOAT activity in intact cells (GOAT): dose inhibition response

CCCCCCCC(C)(O)/C=C/[C@H](NC(=O)OCc1ccccc1)C(=O)N[C@@H](Cc1ccccc1)C(=O)N[C@@H](CC(C)C)C(N)=O (stereo partly shown) [BK1129]
GOAT inhibitory activity/potency compared with BK1114 (mouse GOAT): Neither was as effective as BK1114

CCCCCCCC(C)(O)/C=C/[C@H](NC(=O)C(C)(C)CO)C(=O)OC (stereo partly shown) [BK1137]
inhibition of GOAT activity (qualitative) (mouse GOAT): essentially inactive

CCCCCCCC(C)(O)/C=C/[C@H](NC(=O)C(C)(C)CO)C(=O)N[C@@H](Cc1ccccc1)C(=O)N[C@@H](CC(C)C)C(N)=O (stereo partly shown) [BK1141]
inhibition of GOAT activity (qualitative) (mouse GOAT): retains some activity

CCCCCCCC(C)(O)/C=C/[C@@H](NC(=O)OCc1ccccc1)C(=O)OC (stereo partly shown) [BK1149]
GOAT inhibitory activity/potency compared with BK1114 (mouse GOAT): comparable to BK1114

CCCCCCCC(O)(/C=C/[C@H](NC(=O)OCc1ccccc1)C(=O)OC)CCC (stereo partly shown) [BK1165]
GOAT inhibitory activity/potency compared with BK1114 (mouse GOAT): without compromising activity

CCCCCCCC(=O)NC[C@H](NC(=O)OCc1ccccc1)C(=O)OC [LN1111622]
GOAT inhibitory activity/potency compared with BK1114 (mouse GOAT): does not perform as well as BK1114

CCCCCCCC(O)/C=C/[C@H](NC(=O)OCc1ccccc1)C(=O)OC (stereo partly shown) [PH1147]
inhibition of GOAT activity at high concentration (mouse GOAT): greatest inhibition | IC50 (mouse GOAT): ~90 µM

CCCCCCCC(O)CC[C@H](NC(=O)CC(C)(C)O)C(=O)OC (stereo partly shown) [PH1149]
inhibition of GOAT activity at high concentration (mouse GOAT): inhibited GOAT activity

CCCCCCCC(O)CC[C@H](NC(=O)C(C)(C)CO)C(=O)OC (stereo partly shown) [PH1150]
inhibition of GOAT activity at high concentration (mouse GOAT): inhibited GOAT activity

CCCCCCCC(=O)CC[C@H](NC(=O)OCc1ccccc1)C(=O)OC [PH1154a]
GOAT inhibition in vitro compared with PH1147 (mouse GOAT): comparably to PH1147 | GOAT inhibition at higher concentrations (mouse GOAT; concentrations higher than 100 μM, compared with PH1147): performed more poorly

CCCCCCCC(O)CC[C@@H](CO)NC(=O)[C@H](C)NC(=O)CNC (stereo partly shown) [PH1167]
GOAT inhibitory activity compared with PH1147 (mouse GOAT): neither PH1159 nor PH1167 possessed activity comparable to PH1147

CCCCCCCC(C)(O)/C=C/[C@H](NC(=O)OCc1ccccc1)C(=O)NC(C)C (stereo partly shown) [PH1176a]
GOAT inhibitory activity/potency compared with BK1114 (mouse GOAT): do not improve activity

CCCCCCCC(C)(O)C/C=C(/NC(=O)OCc1ccccc1)C(=O)NC(C)C (stereo not shown) [PH1176b]
GOAT inhibitory activity/potency compared with BK1114 (mouse GOAT): do not improve activity

CCCCCCCC(=O)NC[C@H](NC(=O)[C@H](CO)NC(=O)CN)C(=O)N[C@@H](Cc1ccccc1)C(=O)N[C@@H](CC(C)C)C(N)=O [Structure 2, [Dap^3]octanoyl-ghrelin (1-5)-NH2, reference compound] (H-GS[Dap](Octanoyl)FL-NH2)
IC50 (mouse GOAT): ~1.5 µM | dose response inhibition of GOAT activity in vitro (mouse GOAT): dose response inhibition
